Experimental data reported in PubChem BioAssay (NCI).
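Five compound concentrations were applied to cells in 96-well plates for 48 hours; endpoints were derived by simple linear interpolation of the resulting dose-response curve. Abbreviation: GI50, concentration required for 50% inhibition of growth. TGI denotes the concentration required for complete inhibition of growth.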

Experiments:
Assay in all cases: DTP human tumour cell line panel, 48 h
OVCAR-5 ovarian = tested on: OVCAR-5 ovarian
SF-539 CNS = tested on: SF-539 CNS
A549 NSCLC = tested on: A549 NSCLC
786-0 renal = tested on: 786-0 renal
SNB-19 CNS = tested on: SNB-19 CNS
SF-295 CNS = tested on: SF-295 CNS
NCI-H460 lung = tested on: NCI-H460 lung
MCF7 breast = tested on: MCF7 breast
UO-31 renal = tested on: UO-31 renal
SW-620 colon = tested on: SW-620 colon
MDA-MB-435 = tested on: MDA-MB-435
COLO 205 colon = tested on: COLO 205 colon
A498 renal = tested on: A498 renal
T-47D breast = tested on: T-47D breast
TK-10 renal = tested on: TK-10 renal
HOP-62 NSCLC = tested on: HOP-62 NSCLC
OVCAR-3 ovarian = tested on: OVCAR-3 ovarian
BT-549 breast = tested on: BT-549 breast
MDA-MB-231 breast = tested on: MDA-MB-231 breast
MALME-3M melanoma = tested on: MALME-3M melanoma
ACHN renal = tested on: ACHN renal
HCT-116 colon = tested on: HCT-116 colon
EKVX NSCLC = tested on: EKVX NSCLC
OVCAR-4 ovarian = tested on: OVCAR-4 ovarian
MOLT-4 leukemia = tested on: MOLT-4 leukemia
SK-MEL-5 melanoma = tested on: SK-MEL-5 melanoma
M14 melanoma = tested on: M14 melanoma
UACC-62 melanoma = tested on: UACC-62 melanoma
U251 CNS = tested on: U251 CNS
SK-MEL-2 melanoma = tested on: SK-MEL-2 melanoma
HL-60(TB) leukemia = tested on: HL-60(TB) leukemia
SNB-75 CNS = tested on: SNB-75 CNS
KM12 colon = tested on: KM12 colon
RXF 393 renal = tested on: RXF 393 renal
HCT-15 colon = tested on: HCT-15 colon
NCI/ADR-RES ovarian = tested on: NCI/ADR-RES ovarian
HCC-2998 colon = tested on: HCC-2998 colon
PC-3 prostate = tested on: PC-3 prostate
NCI-H23 lung = tested on: NCI-H23 lung
SR leukemia = tested on: SR leukemia
RPMI-8226 leukemia = tested on: RPMI-8226 leukemia
CAKI-1 renal = tested on: CAKI-1 renal
HOP-92 NSCLC = tested on: HOP-92 NSCLC
DU-145 prostate = tested on: DU-145 prostate
SK-OV-3 ovarian = tested on: SK-OV-3 ovarian
LOX IMVI melanoma = tested on: LOX IMVI melanoma
OVCAR-8 ovarian = tested on: OVCAR-8 ovarian
SF-268 CNS = tested on: SF-268 CNS
SK-MEL-28 melanoma = tested on: SK-MEL-28 melanoma
NCI-H226 lung = tested on: NCI-H226 lung
IGROV1 ovarian = tested on: IGROV1 ovarian
CCRF-CEM leukemia = tested on: CCRF-CEM leukemia
SN12C renal = tested on: SN12C renal
UACC-257 melanoma = tested on: UACC-257 melanoma
K-562 leukemia = tested on: K-562 leukemia
HT29 colon = tested on: HT29 colon
NCI-H522 lung = tested on: NCI-H522 lung
HS 578T breast = tested on: HS 578T breast

COc1ccc2c(c1)CC[C@@H]1[C@@H]2CC[C@]2(C)C(=O)/C(=C/c3cc(OC)c(OC)c(OC)c3)C[C@@H]12
TGI (OVCAR-5 ovarian): 62.4 µM | TGI (SF-539 CNS): 67 µM | TGI (A549 NSCLC): > 100 µM | TGI (786-0 renal): 39 µM | TGI (SNB-19 CNS): > 100 µM | TGI (SF-295 CNS): 74.6 µM | TGI (NCI-H460 lung): > 100 µM | TGI (MCF7 breast): > 100 µM | TGI (UO-31 renal): > 100 µM | TGI (SW-620 colon): > 100 µM | TGI (MDA-MB-435): > 100 µM | TGI (COLO 205 colon): > 100 µM | TGI (A498 renal): > 100 µM | TGI (T-47D breast): > 100 µM | TGI (TK-10 renal): 34.2 µM | TGI (HOP-62 NSCLC): 30.7 µM | TGI (OVCAR-3 ovarian): 33.7 µM | TGI (BT-549 breast): 63.9 µM | TGI (MDA-MB-231 breast): 42 µM | TGI (MALME-3M melanoma): 35 µM | TGI (ACHN renal): 40.7 µM | TGI (HCT-116 colon): > 100 µM | TGI (EKVX NSCLC): > 100 µM | TGI (OVCAR-4 ovarian): > 100 µM | TGI (MOLT-4 leukemia): > 100 µM | TGI (SK-MEL-5 melanoma): > 100 µM | TGI (M14 melanoma): 41.2 µM | TGI (UACC-62 melanoma): > 100 µM | TGI (U251 CNS): > 100 µM | TGI (SK-MEL-2 melanoma): 41.6 µM | TGI (HL-60(TB) leukemia): > 100 µM | TGI (SNB-75 CNS): 38.9 µM | TGI (KM12 colon): 82.9 µM | TGI (RXF 393 renal): 86.8 µM | TGI (HCT-15 colon): > 100 µM | TGI (NCI/ADR-RES ovarian): 34.6 µM | TGI (HCC-2998 colon): > 100 µM | TGI (PC-3 prostate): 26.9 µM | TGI (NCI-H23 lung): 53.3 µM | TGI (SR leukemia): > 100 µM | TGI (RPMI-8226 leukemia): > 100 µM | TGI (CAKI-1 renal): 63.3 µM | TGI (HOP-92 NSCLC): 45.4 µM | TGI (DU-145 prostate): > 100 µM | TGI (SK-OV-3 ovarian): > 100 µM

COc1cc(/C=C/C(=O)OC[C@H](Br)[C@H](OC(C)=O)c2ccc3c(c2)OCO3)cc(OC)c1OC
TGI (OVCAR-5 ovarian): > 100 µM | TGI (SF-539 CNS): > 100 µM | TGI (A549 NSCLC): > 100 µM | TGI (786-0 renal): > 100 µM | TGI (SNB-19 CNS): > 100 µM | TGI (SF-295 CNS): > 100 µM | TGI (LOX IMVI melanoma): > 100 µM | TGI (OVCAR-8 ovarian): > 100 µM | TGI (MCF7 breast): > 100 µM | TGI (UO-31 renal): > 100 µM | TGI (SF-268 CNS): > 100 µM | TGI (SW-620 colon): > 100 µM | TGI (MDA-MB-435): > 100 µM | TGI (SK-MEL-28 melanoma): > 100 µM | TGI (COLO 205 colon): > 100 µM | TGI (A498 renal): > 100 µM | TGI (T-47D breast): > 100 µM | TGI (TK-10 renal): > 100 µM | TGI (HOP-62 NSCLC): > 100 µM | TGI (OVCAR-3 ovarian): > 100 µM | TGI (BT-549 breast): > 100 µM | TGI (MDA-MB-231 breast): > 100 µM | TGI (MALME-3M melanoma): > 100 µM | TGI (ACHN renal): > 100 µM | TGI (NCI-H226 lung): > 100 µM | TGI (HCT-116 colon): > 100 µM | TGI (EKVX NSCLC): > 100 µM | TGI (OVCAR-4 ovarian): > 100 µM | TGI (MOLT-4 leukemia): > 100 µM | TGI (IGROV1 ovarian): > 100 µM | TGI (SK-MEL-5 melanoma): > 100 µM | TGI (M14 melanoma): > 100 µM | TGI (CCRF-CEM leukemia): > 100 µM | TGI (SN12C renal): > 100 µM | TGI (UACC-62 melanoma): > 100 µM | TGI (U251 CNS): > 100 µM | TGI (UACC-257 melanoma): > 100 µM | TGI (SK-MEL-2 melanoma): > 100 µM | TGI (K-562 leukemia): > 100 µM | TGI (KM12 colon): > 100 µM | TGI (HT29 colon): > 100 µM | TGI (RXF 393 renal): > 100 µM | TGI (HCT-15 colon): > 100 µM | TGI (NCI/ADR-RES ovarian): > 100 µM | TGI (HCC-2998 colon): > 100 µM | TGI (NCI-H522 lung): > 100 µM | TGI (PC-3 prostate): > 100 µM | TGI (NCI-H23 lung): > 100 µM | TGI (SR leukemia): > 100 µM | TGI (RPMI-8226 leukemia): > 100 µM | TGI (CAKI-1 renal): > 100 µM | TGI (HOP-92 NSCLC): > 100 µM | TGI (DU-145 prostate): > 100 µM | TGI (SK-OV-3 ovarian): > 100 µM

CC(C)CCC[C@@H](C)[C@H]1CCC2C3=CCC4C(=O)C=CC(=O)C4C3CC[C@@]21C (stereo not given in full)
GI50 (OVCAR-5 ovarian): 0.212 µM | TGI (OVCAR-5 ovarian): > 100 µM | GI50 (A549 NSCLC): 0.0836 µM | GI50 (SNB-19 CNS): 0.543 µM | TGI (SNB-19 CNS): > 100 µM | GI50 (SF-295 CNS): 0.172 µM | TGI (SF-295 CNS): 0.576 µM | GI50 (NCI-H460 lung): 0.324 µM | TGI (NCI-H460 lung): 2.59 µM | GI50 (LOX IMVI melanoma): 0.227 µM | TGI (LOX IMVI melanoma): 1.17 µM | GI50 (OVCAR-8 ovarian): 0.0726 µM | GI50 (UO-31 renal): 0.0721 µM | TGI (UO-31 renal): 0.359 µM | GI50 (SF-268 CNS): 0.566 µM | TGI (SF-268 CNS): > 100 µM | GI50 (MDA-MB-435): 0.254 µM | TGI (MDA-MB-435): 1.15 µM | GI50 (SK-MEL-28 melanoma): 0.449 µM | TGI (SK-MEL-28 melanoma): > 100 µM | GI50 (COLO 205 colon): 0.0545 µM | TGI (COLO 205 colon): 0.183 µM | GI50 (A498 renal): 0.301 µM | TGI (A498 renal): 1.14 µM | GI50 (T-47D breast): 0.174 µM | GI50 (TK-10 renal): 2.65 µM | TGI (TK-10 renal): > 100 µM | GI50 (HOP-62 NSCLC): 0.552 µM | TGI (HOP-62 NSCLC): > 100 µM | GI50 (OVCAR-3 ovarian): 0.348 µM | GI50 (BT-549 breast): 0.306 µM | TGI (BT-549 breast): 1.72 µM | GI50 (MDA-MB-231 breast): 0.331 µM | TGI (MDA-MB-231 breast): 1.32 µM | GI50 (MALME-3M melanoma): 0.399 µM | TGI (MALME-3M melanoma): 2 µM | GI50 (NCI-H226 lung): 0.849 µM | TGI (NCI-H226 lung): > 100 µM | GI50 (HCT-116 colon): 0.0551 µM | TGI (HCT-116 colon): 1.03 µM | GI50 (EKVX NSCLC): 0.279 µM | GI50 (OVCAR-4 ovarian): 0.159 µM | TGI (OVCAR-4 ovarian): 0.498 µM | GI50 (MOLT-4 leukemia): 0.373 µM | TGI (MOLT-4 leukemia): > 100 µM | GI50 (IGROV1 ovarian): 0.26 µM | TGI (IGROV1 ovarian): 0.719 µM | GI50 (SK-MEL-5 melanoma): 0.419 µM | TGI (SK-MEL-5 melanoma): 2.66 µM | GI50 (CCRF-CEM leukemia): 0.179 µM | TGI (CCRF-CEM leukemia): > 100 µM | GI50 (SN12C renal): 0.256 µM | TGI (SN12C renal): > 100 µM | GI50 (UACC-62 melanoma): 0.542 µM | TGI (UACC-62 melanoma): > 100 µM | GI50 (UACC-257 melanoma): 0.372 µM | GI50 (SK-MEL-2 melanoma): 1.14 µM | GI50 (K-562 leukemia): 0.139 µM | TGI (K-562 leukemia): > 100 µM | GI50 (HL-60(TB) leukemia): 0.27 µM | TGI (HL-60(TB) leukemia): > 100 µM | GI50 (HS 578T breast): 0.528 µM | TGI (HS 578T breast): > 20.9 µM | GI50 (KM12 colon): 0.338 µM | TGI (KM12 colon): > 100 µM | GI50 (HT29 colon): 0.839 µM | TGI (HT29 colon): > 100 µM | GI50 (HCT-15 colon): 0.235 µM | TGI (HCT-15 colon): > 100 µM | GI50 (HCC-2998 colon): 0.274 µM | TGI (HCC-2998 colon): 0.855 µM | GI50 (NCI-H522 lung): 0.803 µM | TGI (NCI-H522 lung): > 100 µM | GI50 (PC-3 prostate): 0.101 µM | GI50 (SR leukemia): 0.263 µM | TGI (SR leukemia): > 100 µM | GI50 (RPMI-8226 leukemia): 0.11 µM | GI50 (HOP-92 NSCLC): 0.135 µM | TGI (HOP-92 NSCLC): 0.67 µM | GI50 (DU-145 prostate): 0.507 µM | TGI (DU-145 prostate): > 100 µM
